Literature values, collected in patent publication US20200237731A1, “USE OF CLOXACILLIN TO INHIBIT/PREVENT BIOFILM FORMATION” (priority 2017, published 2020).

Legend:
S. aureus strain USA 300 = conditions: sub-MIC doses; Mlynek et al., 2016; cited from earlier work
[1] = tested on: biofilm forming Staphylococcus aureus; conditions: compounds tested individually; Singh and Mishra, 2012; cited from earlier work
Clostridium difficile = conditions: Vuotto et al., 2016; cited from earlier work
S. aureus = conditions: sub-MIC doses; Mirani et al., 2011; cited from earlier work
[2] = tested on: clinical isolates of S. aureus; conditions: in vitro; Tunney et al., 2007; cited from earlier work

CC1(C)S[C@@H]2[C@H](NC(=O)[C@H](N)c3ccc(O)cc3)C(=O)N2[C@H]1C(=O)O [amoxicillin]
attachment of S. aureus strain USA 300 (S. aureus strain USA 300): induces attachment

CC1(C)S[C@@H]2[C@H](NC(=O)[C@H](N)c3ccccc3)C(=O)N2[C@H]1C(=O)O [ampicillin]
preventive action against biofilm formation [1]: not sufficiently active

Cc1ncc([N+](=O)[O-])n1CCO [metronidazole]
biofilm formation by Clostridium difficile (Clostridium difficile): increases biofilm formation

Cc1onc(-c2ccccc2)c1C(=O)N[C@@H]1C(=O)N2[C@@H]1SC(C)(C)[C@@H]2C(=O)O [oxacillin]
biofilm formation by S. aureus (S. aureus): induces biofilm formation

CN[C@H](CC(C)C)C(=O)N[C@H]1C(=O)N[C@@H](CC(N)=O)C(=O)N[C@H]2C(=O)N[C@H]3C(=O)N[C@H](C(=O)N[C@H](C(=O)O)c4cc(O)cc(O)c4-c4cc3ccc4O)[C@H](O)c3ccc(c(Cl)c3)Oc3cc2cc(c3O[C@@H]2O[C@H](CO)[C@@H](O)[C@H](O)[C@H]2O[C@H]2C[C@](C)(N)[C@H](O)[C@H](C)O2)Oc2ccc(cc2Cl)[C@H]1O [vancomycin]
biofilm formation by S. aureus (S. aureus): induces biofilm formation

gentamicin
effect of treatment of bone cement on biofilm formation [2]: ineffectiveness

penicillin
preventive action against biofilm formation [1]: not sufficiently active
